# Read-outs that look alike come from different tables or passages of the source.
# Key:
# [1] = test system: SKOV3 ovarian cancer cells; format: cell-based
# Protocol: (§3) Trypan Blue exclusion was applied as a complementary confirmation probe for cell death.
# (§4) Statistical comparisons of differences in individual dose-response metrics between individual/paired drug treatments and various cell lines were conducted using the Student's t-test, with P-values <0.05 considered significant.
# (§5) Relative cell growth inhibition values for differing levels each drug alone and in combination were input into SynergyFinder to generated dose-response curves for each drug alone, to produce a dose-response matrix, to visualize the distribution of areas of differing degrees of synergism in a 2-dimension heatmap and 3-dimension volcano plot, and to calculate average and maximum synergy scores in selected human cancer cell lines. […] Synergy scores <10 means that the interaction between two drugs was likely to be antagonistic; scores from −10 to 10 means the interaction between two drugs was likely to be additive; and scores >10 means the interaction between two drugs was likely to be synergistic.
# HL60 cells = experiment: Trypan Blue cell count after 48 hour exposure; format: cell-based, human; conditions: read-out: Average Growth Inhibitory Dose 50% [EC50], Myelogenous Leukemia (HL60)
# Protocol: (§1) To evaluate the anticancer activity of 4-arm star polyethylene glycol conjugated to WR-1065 (4SP65), the anticancer efficacy of 4SP65 was determined in some of the same cell lines used by NIH/NCI, and the methodology used was the same as is used by the NCI to evaluate chemotherapeutic agents currently in use (O'Connor et al., “Characterization of the p53 Tumor Suppressor Pathway in Cell Lines of the National Cancer Institute Anticancer Drug Screen and Correlations With the Growth-Inhibitory Potency of 123 Anticancer Agents,” Cancer Res. 57 (19): 4285-300 (1997), which is hereby incorporated by reference in its entirety). Testing of 6 cancer types was completed: (i) breast cancer (MDA-MB-231 cells), (ii) lung cancer (A549), (iii) prostate cancer cell line (LNCaP), (iv) myelogenous leukemia (HL60 cells), (v) ovarian cancer (SK-OV-3), and (vi) prostate cancer (DU-145).
# (§2) Each cell line was grown in medium as recommended by the ATCC or as presented in the literature for that cell line. All cells were cultured in a water jacket incubator at 36-37° C. and in the presence of 5% CO2. To ensure optimal growth and viability, all cells were grown on plates coated with FNC (In Vitrogen). Cells were refed with growth medium twice weekly until they had reached 60 to 70% confluence. At this point, the medium was replaced with growth medium supplemented with 4SP65 at doses ranging from 0 to up to 300 micromolar. Cells were allowed to grow in the presence of this supplemented medium for 48 hours, and then they were removed by trypsinization, stained with Trypan Blue and counted in a hemocytometer. Three to four replicates for each dose group per experiment were performed. The percentage cell death was determined by comparing the average number of surviving cells exposed to 4SP65 versus the average number of surviving sham exposed cells.
# MDA-MB-231 cells = experiment: Trypan Blue cell count after 48 hour exposure; format: cell-based, human; conditions: read-out: Average Growth Inhibitory Dose 50% [EC50], Breast CA (MDA-MB-231)
# Protocol: as §1, §2
# DU-145 = experiment: Trypan Blue cell count after 48 hour exposure; format: cell-based, human; conditions: read-out: Average Growth Inhibitory Dose 50% [EC50], Prostate CA (DU-145)
# Protocol: as §1, §2
# SK-OV-3 = experiment: Trypan Blue cell count after 48 hour exposure; format: cell-based, human; conditions: read-out: Average Growth Inhibitory Dose 50% [EC50], Ovarian CA (SK-OV-3)
# Protocol: as §1, §2
# LNCaP = experiment: Trypan Blue cell count after 48 hour exposure; format: cell-based, human; conditions: read-out: Average Growth Inhibitory Dose 50% [EC50], Prostate cancer cell line (LNCaP)
# Protocol: as §1, §2
# A549 = experiment: Trypan Blue cell count after 48 hour exposure; format: cell-based, human; conditions: read-out: Average Growth Inhibitory Dose 50% [EC50], Lung CA (A549)
# Protocol: as §1, §2
# [2] = test system: HMESO-1 malignant mesothelioma cells; format: cell-based
# Protocol: as §3, §4, §5
# A549 NSCLC cells = conditions: 48 h; for GI50 / IC50 / LC99 / TGI: each drug alone
# Protocol: as §3, §4, §5
# HCC38 cells = experiment: CyQUANT cell viability assay, 48-hour exposure; format: cell-based, human
# Protocol: After drug treatments, fluorescence readings from 96-well plates were obtained using the CyQUANT dye and compared to standard curves for each cell line to determine cell viability. […] Trypan blue exclusion was used to estimate cell numbers in a few pilot experiments and was thereafter applied to confirm cell death.
# A series of experiments was conducted to assess the relative efficacy of 4SP65, 1LP65, and amifostine as single agents in the same human cancer cell lines. First, the effectiveness of 4SP65 was tested against 15 cancer cell lines derived from seven tissues. […] The effectiveness of 0 to ≤500 μM amifostine was tested in sets of cancer cell lines reported to have either medium, high, or no expression of alkaline phosphatase.
# Trans. R Soc. Lond. […] Using cell numbers based on fluorescence measurements and standard curves [time zero, (Tz), control growth, (C), and test growth in the presence of drug at five or more concentration levels (Ti)], the percentage growth was calculated at each drug concentration level. The percentage of growth inhibition was calculated as follows:
# The LC50/99 was calculated using Equation 2=−50 and Eq. 2=−99, respectively. […] For NHMECs, the relationships between drug exposure levels and fluorescence units were used to define dose-response metrics. The selectivity index (SI) values for individual drug treatments were calculated as IC50 levels in NHMECs divided by the IC50 values in cancer cell lines.
# NCI-H460 NSCLC cells = format: cell-based
# Protocol: as §3, §4, §5
# [3] = test system: TOV21G ovarian cancer cells; format: cell-based
# Protocol: as §3, §4, §5
# [4] = NCI-H460, each drug alone, 48 h
# Protocol for H1975 cells: as §3, §4, §5
substance,measurement,setting,value
4-star PEG-S-S-WR1065 [4SP65],CC50,[1],9.7 ± 0.5 µM
same,GI50,"[1]; SKOV3, each drug alone, 48 h",4.3 ± 1 µM
same,IC50,"[1]; SKOV3, each drug alone, 48 h",5.2 ± 1 µM
same,LC99,"[1]; SKOV3, each drug alone, 48 h",10.0 ± 0.8 µM
same,TGI,"[1]; SKOV3, each drug alone, 48 h",7.3 ± 0.8 µM
same,fold more effective as cytostatic agent than PRIMA-1/PRIMA-1met (GI50),[1]; TP53-null SKOV3 cells,16 fold
same,EC50,HL60 cells,3 µM
same,EC50,MDA-MB-231 cells,4.5 µM
same,EC50,DU-145,6.7 µM
same,EC50,SK-OV-3,5 µM
same,EC50,LNCaP,9.5 µM
same,EC50,A549,15 µM
same,CC50,[2],7 ± 0.1 µM
same,GI50,"[2]; HMESO-1, each drug alone, 48 h",2 ± 0.3 µM
same,IC50,"[2]; HMESO-1, each drug alone, 48 h",4.7 ± 0.2 µM
same,LC99,"[2]; HMESO-1, each drug alone, 48 h",12.4 ± 0.1 µM
same,TGI,"[2]; HMESO-1, each drug alone, 48 h",4.3 ± 0.2 µM
same,"LC99, amount of each drug in combination",A549 NSCLC cells; 4SP65-cisplatin combined,8 µM
same,GI50,A549 NSCLC cells; cisplatin series,5.4 ± 2.5 µM
same,IC50,A549 NSCLC cells; cisplatin series,6.8 ± 1.3 µM
same,LC99,A549 NSCLC cells; cisplatin series,14.9 ± 3.8 µM
same,TGI,A549 NSCLC cells; cisplatin series,8.3 ± 1.5 µM
same,GI50,A549 NSCLC cells; gefitinib series,6 ± 0.6 µM
same,IC50,A549 NSCLC cells; gefitinib series,7.4 ± 0.7 µM
same,LC99,A549 NSCLC cells; gefitinib series,12.3 ± 3.8 µM
same,TGI,A549 NSCLC cells; gefitinib series,11.3 ± 1.5 µM
same,Relative potency compared to amifostine at IC50,HCC38 cells; HCC38 cells,67 fold
same,selectivity index,HCC38 cells; IC50 of 76 in most sensitive NHMEC strain / IC50 in HCC38,> 19
same,CC50,H1975 cells,7.2 ± 1.4 µM
same,GI50,"H1975 cells; H1975, each drug alone, 48 h",3.2 ± 1.1 µM
same,IC50,"H1975 cells; H1975, each drug alone, 48 h",3.5 ± 0.9 µM
same,LC99,"H1975 cells; H1975, each drug alone, 48 h",8.9 ± 1.6 µM
same,TGI,"H1975 cells; H1975, each drug alone, 48 h",5.5 ± 1.4 µM
same,CC50,NCI-H460 NSCLC cells,17.6 ± 0.5 µM
same,Fold increase in efficacy at GI50,"NCI-H460 NSCLC cells; NCI-H460, drug alone vs in 4SP65-cisplatin combination",36 fold
same,GI50,NCI-H460 NSCLC cells; [4],12.3 ± 1.1 µM
same,IC50,NCI-H460 NSCLC cells; [4],13.3 ± 1 µM
same,LC99,NCI-H460 NSCLC cells; [4],18.2 ± 0.4 µM
same,TGI,NCI-H460 NSCLC cells; [4],16.9 ± 0.6 µM
same,CC50,[3],2.7 ± 0.1 µM
same,"LC99, amount of each drug in combination","[3]; TOV21G, 4SP65-cisplatin combined, 48 h",0.95 µM
same,GI50,"[3]; TOV21G, each drug alone, 48 h",0.93 ± 0.37 µM
same,IC50,"[3]; TOV21G, each drug alone, 48 h",1.2 ± 0.3 µM
same,LC99,"[3]; TOV21G, each drug alone, 48 h",3.0 µM
same,TGI,"[3]; TOV21G, each drug alone, 48 h",2.0 ± 0.4 µM

# Source: patent US20250144050A1, “AMINOTHIOL-CONJUGATES, COMPOSITIONS, AND METHODS OF USE THEREOF” (THE BURLINGTON HC RESEARCH GROUP, INC., priority 2021, published 2025)
